Values after ≈ are worked out from the molar mass of the structure shown. Like-named read-outs stand apart in the source and are kept apart here.
Experiments:
[1] = tested on: Klebsiella pneumonia MTCC 618; assay: In vitro antibacterial activity (MIC, CLSI M07-A10 dilution); type: cell-based; details: Klebsiella pneumoniae, MTCC618
[2] = tested on: Mycobacterium tuberculosis H37Rv strain; assay: Anti-tubercular properties, alamar blue microplate MIC; type: cell-based; details: 168 h, M. tuberculosis H37Rv, seven days incubation at 37° C., read-out: anti-mycobacterial activity (MIC)
[3] = tested on: Pseudomonas aeruginosa MTCC 741; assay: In vitro antibacterial activity (MIC, CLSI M07-A10 dilution); type: cell-based; details: MTCC741
[4] = tested on: Escherichia coli MTCC 443; assay: as above; type: cell-based; details: MTCC443
DNA gyrase from E. coli = target: T1, DNA gyrase from E. coli (Escherichia coli, UniProt P0AES4+P0AES6); assay: Inhibitory activities on E. coli DNA Gyrase (Inspiralis assay); type: biochemical
T1 construct: purchased Inspiralis
Method: Inhibitory potencies were investigated utilizing the Inspiralis assay on streptavidin-coated 96-well microtiter plates. First, the plates were rehydrated with buffer (20 mM Tris-HCl with pH 7.6, 0.01% w/v BSA, 0.05% v/v Tween 20, 137 mM NaCl) and the biotinylated oligonucleotide was then immobilized. After washing off the unbound oligonucleotide, the enzyme test was performed. The reaction volume of 30 μL in buffer (35 mM Tris×HCl with pH 7.5, 4 mM MgCl2, 24 mM KCl, 2 mM DTT, 1.8 mM spermidine, 1 mM ATP, 6.5% w/v glycerol, 0.1 mg/mL albumin) contained 1.5 U of DNA gyrase from E. coli, 0.75 μg of relaxed pNO1 plasmid, and 3 μL solution of the inhibitor in 10% DMSO and 0.008% Tween 20. Reaction solutions were incubated at 37° C. for 30 min. After that, the TF buffer (50 mM NaOAc with pH 5.0, 50 mM NaCl and 50 mM MgCl2) was added to terminate the enzymatic reaction. After additional incubation for 30 min at rt, during which biotinoligonucleotide-plasmid triplex was formed, the unbound plasmid was washed off using TF buffer and SybrGOLD in T10 buffer (10 mM Tris HCl with pH 8.0 and 1 mM EDTA) was added. The fluorescence was measured with a microplate reader (BioTek Synergy H4, excitation: 485 nm, emission: 535 nm). Initial screening was done at 100 or 10 μM concentration of inhibitors. […] GraphPad Prism software was used to calculate the IC50 values. […]

[5] = tested on: Bacillus subtilis MTCC 441; assay: In vitro antibacterial activity (MIC, CLSI M07-A10 dilution); type: cell-based; details: MTCC441
[6] = tested on: Enterococcus faecium ATCC 51559 (VRE resistant); assay: as above; type: cell-based
[7] = tested on: Staphylococcus aureus ATCC BAA-1556 (MERSA resistant); assay: as above; type: cell-based; details: ATCCBAA1556
[8] = tested on: Staphylococcus aureus ATCC 29213; assay: as above; type: cell-based; details: ATCC29213
[9] = tested on: Staphylococcus epidermidis; assay: as above; type: cell-based
[10] = tested on: Enterococcus faecium ATCC 35667; assay: as above; type: cell-based; details: ATCC35667

T1 sequence (P0AES4 whole entry, one chain of several): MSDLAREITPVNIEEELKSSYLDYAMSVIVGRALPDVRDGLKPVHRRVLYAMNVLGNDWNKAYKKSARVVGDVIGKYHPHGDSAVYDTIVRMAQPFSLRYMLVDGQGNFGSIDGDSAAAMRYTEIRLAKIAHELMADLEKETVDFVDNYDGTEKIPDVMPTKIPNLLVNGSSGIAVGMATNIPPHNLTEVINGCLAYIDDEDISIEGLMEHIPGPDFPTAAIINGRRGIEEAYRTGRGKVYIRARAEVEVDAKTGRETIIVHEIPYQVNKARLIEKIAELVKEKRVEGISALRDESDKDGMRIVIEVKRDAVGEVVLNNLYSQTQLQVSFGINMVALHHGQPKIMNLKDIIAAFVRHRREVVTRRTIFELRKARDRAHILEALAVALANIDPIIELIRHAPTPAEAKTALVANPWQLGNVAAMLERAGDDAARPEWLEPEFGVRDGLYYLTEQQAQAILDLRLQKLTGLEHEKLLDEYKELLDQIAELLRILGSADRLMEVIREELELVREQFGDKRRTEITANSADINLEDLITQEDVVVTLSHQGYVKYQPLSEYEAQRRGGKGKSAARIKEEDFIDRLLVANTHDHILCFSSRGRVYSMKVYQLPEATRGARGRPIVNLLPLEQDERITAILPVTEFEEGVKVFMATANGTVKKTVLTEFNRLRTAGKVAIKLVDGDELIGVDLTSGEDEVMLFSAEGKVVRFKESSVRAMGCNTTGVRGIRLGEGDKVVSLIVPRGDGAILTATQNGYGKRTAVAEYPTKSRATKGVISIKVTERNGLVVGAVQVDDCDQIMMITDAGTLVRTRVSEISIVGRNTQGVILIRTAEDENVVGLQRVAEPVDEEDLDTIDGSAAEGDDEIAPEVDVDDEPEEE

Compound	MIC ([1]; Klebsiella pneumonia MTCC 618, read-out: MIC)	MIC [2]	MIC ([3]; Pseudomonas aeruginosa MTCC 741, read-out: MIC)	MIC [4]	IC50 (DNA gyrase from E. coli)	MIC ([5]; Bacillus subtilis MTCC 441, read-out: MIC)	MIC ([6]; Enterococcus faecium ATCC 51559 (VRE resistant), read-out: MIC)	MIC [7]	MIC [8]	MIC [9]	MIC ([10]; Enterococcus faecium ATCC 35667, read-out: MIC)	MIC [1]	MIC ([3]; Pseudomonas aeruginosa)	MIC ([5]; Bacillus subtilis)	MIC ([6]; Enterococcus faecium)	MIC ([10]; Enterococcus faecium)
CC(=O)Nc1ccc2c(c1)[nH]c1nccc(Nc3ccc(C(=O)O)cc3)c12 [Example 8, 4-((7-acetamido-9H-pyrido[2,3-b]indol-4-yl)amino)benzoic acid]	1 mg/L (≈ 2.77 µM)	8 mg/L (≈ 22.2 µM)	0.25 mg/L (≈ 0.694 µM)	1 mg/L (≈ 2.77 µM)	0.125 µM	0.25 mg/L (≈ 0.694 µM)	1 mg/L (≈ 2.77 µM)	4 mg/L (≈ 11.1 µM)	0.25 mg/L (≈ 0.694 µM)	0.25 mg/L (≈ 0.694 µM)	0.5 mg/L (≈ 1.39 µM)					
CN[C@H](CC(C)C)C(=O)N[C@H]1C(=O)N[C@@H](CC(N)=O)C(=O)N[C@H]2C(=O)N[C@H]3C(=O)N[C@H](C(=O)N[C@H](C(=O)O)c4cc(O)cc(O)c4-c4cc3ccc4O)[C@H](O)c3ccc(c(Cl)c3)Oc3cc2cc(c3O[C@@H]2O[C@H](CO)[C@@H](O)[C@H](O)[C@H]2O[C@H]2C[C@](C)(N)[C@H](O)[C@H](C)O2)Oc2ccc(cc2Cl)[C@H]1O [Vancomycin, reference compound]												> 128 mg/L	> 128 mg/L	0.5 mg/L (≈ 0.345 µM)	> 128 mg/L	0.5 mg/L (≈ 0.345 µM)
